The source of these data is PubChem BioAssay AID1259420 (Broad Institute, 2018).

Several values for one entry are separate records, joined by “and”; a condition that tells them apart may be missing. Equal values may be shown once. Inconclusive results are not listed. Activity calls are given as the source filed them. How the calls were made is not given here.

The subject of the assay is Toxoplasma gondii growth in host cells, no IFN-gamma. The experiment in a line: compound activity on host-cell Toxoplasma growth – dose response (AID 1259420).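 Further: host cells were HeLa; final incubation lasted 72 hours.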

Consider `Cc1cccc(NC2COC3(CCN(C(=O)c4ccsc4)C3)C2)c1` (stereo not drawn), for which the AC50 (in general, the midpoint of the concentration-response curve, whichever way the signal moves) was 28.1 µM.
As to `O=C(C[C@@H]1CC[C@@H]2[C@H](COC[C@H](O)CN2Cc2ccc3c(c2)OCO3)O1)N1CCCCC1`, the AC50 was > 39 µM (inactive).
Turning to `CCc1cnc(N2[C@H](C#N)[C@@H](c3ccc(-c4cccc(F)c4)cc3)[C@@H]2CO)s1`, the AC50 was > 39 µM (inactive).
With `O=C(C[C@H]1C[C@@H]2CN(Cc3ccccc3)C[C@H]2O1)N1CCCCO1` the figure was > 39 µM (inactive).
With `COc1ccc(NC(=O)N2CC[C@@H]3[C@H]2c2cc(C4=CCCCC4)ccc2N(C)[C@H]3CO)cc1`, the AC50 is 17.8 µM.
Next, `O=C(CCCCCCNC(=O)c1cnc(N(c2ccccc2)c2ccccc2)nc1)NO`: 14.8 µM.
With `COc1cccc(S(=O)(=O)N2CCCCN3[C@@H](CO)[C@H](c4ccc(C#CCC(C)C)cc4)[C@@H]3C2)c1` the figure was 21.4 µM and 16.4 µM and 30.4 µM.
Next, `Cc1ccc(N(Cc2nc(-c3cccc(Cl)c3)oc2C)S(=O)(=O)c2cccs2)cc1`: 8.34 µM; `CCc1c2c(nc3ccc(OC(=O)N4CCC(N5CCCCC5)CC4)cc13)-c1cc3c(c(=O)n1C2)COC(=O)[C@]3(O)CC`: 24.7 µM; `O=C(C[C@@H]1CC[C@H]2[C@@H](COC[C@@H](O)CN2Cc2cc(F)ccc2F)O1)NCc1ccc(Oc2ccccc2)cc1`: 16.9 µM.
Turning to `COc1ccc(-c2ccc3c(c2)[C@H]2[C@H](CCN2C(=O)c2cccc(F)c2)[C@@H](CO)N3)cc1`, the AC50 was 10.6 µM.
Turning to `COc1cccc(-c2ccc3c(c2)[C@@H]2[C@@H](CCN2S(=O)(=O)c2ccccc2F)[C@H](CO)N3)c1`, the AC50 was 10.9 µM.
With `CCCNC(=O)N1[C@@H](C#N)[C@H](c2ccc(C#Cc3cccc(F)c3)cc2)[C@@H]1CO` the figure was 19.3 µM.
With `O=C(C[C@H]1CC[C@H]2[C@@H](COC[C@@H](O)CN2S(=O)(=O)c2ccccc2F)O1)N1CCC(Cc2ccccc2)CC1` the figure was > 20 µM (inactive); with `COc1ccc(-c2ccc3c(c2)[C@@H]2[C@@H](CCN2C(=O)c2cccc(F)c2)[C@H](CO)N3)cc1`, 11.3 µM; with `CC(C)C#Cc1ccc([C@@H]2[C@@H](CO)N(C(=O)c3cccc(F)c3)[C@H]2C#N)cc1`, > 20 µM (inactive).
Next, `N#Cc1cccc(-c2ccc3c(c2)[C@H]2[C@H](CCN2Cc2ccc4c(c2)OCO4)[C@H](CO)N3)c1`: 17.2 µM.
In the case of `N#Cc1ccc(-c2ccc3c(c2)[C@H]2[C@H](CCN2C(=O)C2CCCCC2)[C@H](CO)N3)cc1`, the AC50 was 16.9 µM.
With `CCCN1CCC[C@@H]2Cc3[nH]ncc3C[C@H]21` the figure was > 39 µM (inactive); with `COc1cccc(S(=O)(=O)N2CCCCN3[C@H](CO)[C@H](c4ccc(C#CC5CC5)cc4)[C@H]3C2)c1`, 16.8 µM and 17 µM.
With `N#Cc1cccc(C(=O)N2CCC3C2CC(=O)N3Cc2ccncc2)c1` (stereo not drawn) the figure was > 20 µM (inactive); with `Cc1ccccc1S(=O)(=O)N1C[C@@H]2N[C@H](C1)C2c1ccc(-c2cccc(C#N)c2)cc1` (stereo partly drawn), 13.3 µM and 14.8 µM and 31.3 µM.
With `CCc1c(C)sc2c1CCN(Cc1nc(-c3cc(C)ccc3C)oc1C)C2c1ccccc1` (stereo not drawn), the AC50 was 16.9 µM.
With `COc1cccc(NC(=O)N2CC(=O)N3[C@H](C2)[C@H](c2ccc(C#CCC4CCCC4)cc2)[C@@H]3CO)c1` the figure was 16.9 µM; with `COc1ccc(-c2ccc(C3[C@@H]4CN(C(=O)c5ccc(F)cc5)C[C@H]3N4)cc2)cc1` (stereo partly drawn), 24.4 µM and 13.3 µM; with `O=C(C[C@H]1CC[C@H]2[C@@H](COC[C@H](O)CN2Cc2ccc(Oc3ccccc3)cc2)O1)N1CCN(c2ccccc2)CC1`, 27.6 µM.
Next, `CCOCCCNC(=O)c1ccc2ccc(N3CCN(CC4CC4)CC3)n2c1`: > 39 µM (inactive).
Next, `COc1ccc(C#Cc2ccc([C@@H]3[C@@H](CO)N4C(=O)CN(C(=O)NC(C)C)C[C@@H]34)cc2)cc1`: > 39 µM (inactive); `Cc1cccc(S(=O)(=O)N2CC[C@@H]3[C@H](CO)Nc4ccc(-c5ccccc5F)cc4[C@@H]32)c1`: 17.2 µM.
`COc1ccc(-c2nc(Nc3ccc(CN4CCC(C)CC4)cc3)c3ccccc3n2)cc1`: the AC50 is 12.6 µM.
With `CN(C)C(=O)COC[C@@H]1CC[C@H]2[C@H](CCN2CC2CC2)O1` the figure was > 39 µM (inactive); with `CCCC#Cc1ccc([C@@H]2[C@H]3CN(C(=O)Nc4cccc(F)c4)CC(=O)N3[C@H]2CO)cc1`, 29.4 µM and 14.9 µM.
Next, `Cc1ccc(S(=O)(=O)Nc2ccc3c(c2)C(=O)N([C@H](C)CO)C[C@H](C)[C@H](CN(C)Cc2ccc(C(F)(F)F)cc2)O3)cc1`: 18.5 µM.
